Laboratory results: patent publication USRE46397E1, “Slow release of organic salts of local anesthetics for pain relief” (SVIP5 LLC, priority 2007, dated 2017)
Read-outs that look alike come from different tables or passages of the source.

Legend:
[1] = test system: male, Sprague-Dawley rat; test: Radiant heat pain threshold test after introducing particles into a paraspinal pocket; format: in vivo; conditions: 20 seconds cut-off, treated right side
Protocol: To test the local anesthetic efficacy and duration of effect induced by bupivacaine palmitate particles, a treatment and control side in a male, Sprague-Dawley rat (250-300 g) was employed. The animal was anesthetized with isoflurane inhalation (2.5-3%), whereupon the back was partly shaved. A 16 g needle was introduced deep to the shaved skin on the left mid paraspinal back and moved side to side to clear a small (1.0 cm diameter) pocket. A similar procedure was performed on the right side. The needle was then used to introduce test local anesthetic bupivacaine palmitate particles into the pocket on the right side.
The rat was awakened and placed in a Decapicone for restraint. As restraint itself can produce endogenous analgesic effects, the animal was allowed to rest quietly in the cone for 15 min prior to any testing. Radiant heat from a focused projection bulb with area of approximately 0.5 cm^2 was then directed to the test areas to assess the pain threshold several times on each side. The light was applied until the rat attempted to move within the restraint cone, at which time the light heat stimulus was turned off. The light heat stimulus was never allowed to exceed a 20 seconds interval in order to avoid permanent damage to the skin or undue discomfort.
The post-procedural results at 15 min, 1 and 2 days are represented in average number of seconds before movement: […]

[2] = cited from earlier work; for Maximum Dose: without epinephrine
[3] = cited from earlier work; for Onset: in vivo; for Duration: without epinephrine

Row | Structure (SMILES) | average number of seconds before movement ([1]; Day 0 (15 min post-procedure), radiant heat) [s] | average number of seconds before movement ([1]; Day 1, radiant heat) [s] | average number of seconds before movement ([1]; Day 2, radiant heat) [s] | Maximum Dose (with Epinephrine) [2] | Maximum Dose [2] [mg/kg] | Onset [3] | Duration (with Epinephrine) [3] | Duration [3] [h] | Maximum Dose ([2]; total in 24 hrs) [mg in 24 hrs]
1 | CCCCN1CCCCC1C(=O)Nc1c(C)cccc1C (stereo not shown) [Bupivacaine] | >20 | 16 | 7.6 | (3 mg/kg) | 2.5 | Slow | (8 h) | 4 | –
2 | CCN(CC)CCOC(=O)c1ccc(N)cc1Cl [Chloroprocaine] | – | – | – | (15 mg/kg) | 10 | Rapid | (90 min) | 0.5 | –
3 | CCCN(CC)C(CC)C(=O)Nc1c(C)cccc1C (stereo not shown) [Etidocaine] | – | – | – | (4 mg/kg) | 2.5 | Rapid | (8 h) | 4 | –
4 | CCCCN1CCCC[C@H]1C(=O)Nc1c(C)cccc1C [Levobupivacaine] | – | – | – | – | 2.0 | Medium | (8-12 h) | 4 to 6 | 400
5 | CCN(CC)CC(=O)Nc1c(C)cccc1C [Lidocaine, 2-(diethylamino)-N-(2,6-dimethylphenyl)-acetamide] | – | – | – | (7 mg/kg) | 4.5 | Rapid | (240 min) | 2 | –
6 | Cc1cccc(C)c1NC(=O)C1CCCCN1C (stereo not shown) [Mepivacaine] | – | – | – | (7 mg/kg) | 5 | Rapid | (360 min) | 3 | –
7 | CCCNC(C)C(=O)Nc1ccccc1C (stereo not shown) [Prilocaine] | – | – | – | (7.5 mg/kg) | 5 | Medium | (360 min) | 1.5 | –
8 | CCN(CC)CCOC(=O)c1ccc(N)cc1 [Procaine] | – | – | – | (10 mg/kg) | 8 | Slow | (90 min) | 0.75 | –
9 | CCCN1CCCC[C@H]1C(=O)Nc1c(C)cccc1C [Ropivacaine] | – | – | – | – | 2 to 3 | Medium | (6 h) | 3 | –
10 | CCCCNc1ccc(C(=O)OCCN(C)C)cc1 [Tetracaine] | – | – | – | (2.5 mg/kg) | 1.5 | Slow | (10 h) | 3 | –
